One assay concerns EGFR. Nature of the assay: Western blotting, EGF-induced phosphorylation. It counts as cell-based, human. The following applies: A549 cells, pretreated 8 h, EGF 10 minutes. The procedure:
A549 cells (5×10^5 cells/60 mm) were pretreated with various concentrations of GMI (4, 16 μg/ml) or AG1478 (EGFR inhibitors) for 8 hours prior to incubation for 10 minutes with EGF (as indicated). Cell lysates were subject to immunoblotting with phospho-specific EGFR (Y1068) (A and B), anti-phospho-AKT (A), anti-AKT (A), anti-phospho-GSK3β (A) or anti-phospho-STAT3 antibodies (B). Protein loading was determined by Western blotting against β-actin (A and B).
Total cell lysates were prepared in RIPA buffer (100 μl in 60 mm in dish). Fifty μg of lysate were loaded onto an 8% polyacrylamide gel and analyzed by SDS gel electrophoresis. After transfer to PVDF (Amersham), blots were blocked with 5% skim milk in TBS (10 mM Tris-CL pH7.5, 150 mM NaCl) containing 0.2% Tween-20. Blots were probed with antibodies (at their recommended dilutions) in 5% skim milk in TBS overnight at 4° C. Following detection with the appropriate horseradish-peroxidase conjugated secondary antibody (Cell Signaling), blots were developed by enhanced chemiluminescence according to the manufacturer's directions (Perkin Elmer Life Sciences). All experiments were performed in duplicate.
To assess whether GMI mediates and/or inhibits phosphorylation of Akt and Stat3, the invention investigated the effect of GMI on the phosphorylation status of Akt and Stat3 in A549 cells treated with various concentrations of GMI for 8 h.
On the technique in general: Immunoblotting shows a protein as a band on a membrane.

The subject of the next assay is A549/D32. Nature of the assay: MTT assay, drug sensitivity. The settings on record: for value in parentheses after IC50 (ratio to parental A549): A549/D32; for IC50: Homo sapiens, A549/D32, 48 h, MTT. It counts as cell-based, human. The procedure:
(§1) A549 cell line and resistant A549 cell sublines (A549/D16, A549/D32 and A549/V16) (5000 cells/well of 96-well plate) were treated with increased doses concentrations (μM) of GMI from Ganoderma microsporum, docetaxel, vincristine and doxorubicin for 48 h, respectively. Cell viability was measured by MTT assay and the results are presented as the calculated cell growth inhibitory ratio. Experiments were repeated three times.
Background: Tetrazolium dyes change colour on reduction, which living cells bring about.

The subject of another assay is A549. Kind of assay: MTT assay, drug sensitivity. Format: cell-based, human. The settings on record: for IC50: Homo sapiens, A549, 48 h, MTT. The procedure:
as §1

A further assay relates to A549/D16. Nature of the assay: MTT assay, drug sensitivity. The following applies: for value in parentheses after IC50 (ratio to parental A549): A549/D16; for IC50: Homo sapiens, A549/D16, 48 h, MTT. It counts as cell-based, human. The procedure: as §1
Another assay has as its system A549/V16. Nature of the assay: MTT assay, drug sensitivity. Format: cell-based, human. The following applies: for value in parentheses after IC50 (ratio to parental A549): A549/V16; for IC50: Homo sapiens, A549/V16, 48 h, MTT. The procedure: as §1
A further assay has as its system CaLu-1 cells. Kind of assay: MTT assay, cisplatin and GMI co-treatment. The following applies: CaLu-1, 48 h, read-out: cisplatin alone concentration needed to achieve about 50% cell viability. It counts as cell-based. The procedure: CaLu-1 cells were co-treated with various concentrations of cisplatin (0, 2.5, 5, 10, 20 μM) and GMI from Ganoderma microsporum (0, 4, 8 and 16 μg/mL) for 48 h followed by MTT assay to estimate cell viability.
MTT assay was used to determine the effect of GMI and cisplatin on the proliferation of Calu-1 cells. In metabolically active cells, MTT (Thiazolyl Blue Tetrazolium Bromide) (Sigma) was reduced by dehydrogenase enzyme into an formazan product. Absorbance was measured directly at 570 nm from 96-well assay plates after adding 100 μl DMSO. The quantity of formazan was considered to be directly proportional to the number of viable cells in the culture.
Briefly, the cells (5×10^3) were incubated on 96-well plates containing 200 μl of growth medium. After 24 h incubation, the medium was carefully removed and 100 μl of fresh medium containing various concentrations of GMI and cisplatin were added to the wells. The cells were treated with GMI and cisplatin continuously for 48 h with 0, 4, 8, 16 μg/ml for GMI and with 0, 2.5, 5 and 10 μM for cisplatin. […] The absorbance was analyzed on a VERSAmax microplate reader at 570 nm. Absorbance values were presented as the mean±SE of 3 replicates for each treatment. […] Absorbance of untreated cells was considered 100%. […]

Take `COc1cc2ncnc(Nc3cccc(Cl)c3)c2cc1OC` [AG1478, reference compound]: the “EGF-induced activation (phosphorylation) of EGFR” value in the assay on EGFR is listed as “able to inhibit EGFR phosphorylation”.

Consider `CC(=O)O[C@@]12CO[C@@H]1C[C@H](O)[C@@]1(C)C(=O)[C@H](O)C3=C(C)[C@@H](OC(=O)[C@H](O)[C@@H](NC(=O)OC(C)(C)C)c4ccccc4)C[C@@](O)([C@@H](OC(=O)c4ccccc4)[C@H]21)C3(C)C` [Docetaxel], for which the “value in parentheses after IC50 (ratio to parental A549)” value (“value … (ratio to parental A549)” below) came out at 318.0 with A549/D32, 1.0 in the assay with A549, 114.1 in the assay on A549/D16 and 121.9 with A549/V16. The IC50 in the assay with A549/D32 turned out to be 2040 ± 955 nM; with A549 it was 6.4 ± 0.1 nM; in the assay with A549/D16, 730 ± 56.6 nM; in the assay on A549/V16, 780 ± 51.3 nM.

For `COc1cccc2c1C(=O)c1c(O)c3c(c(O)c1C2=O)C[C@@](O)(C(=O)CO)C[C@@H]3O[C@H]1C[C@H](N)[C@H](O)[C@H](C)O1` [Doxorubicin], the “value … (ratio to parental A549)” value was 34.6 in the assay with A549/D32, 1.0 in the assay on A549, 15.4 in the assay with A549/D16 and 6.9 in the assay with A549/V16. Moreover, the IC50 stood at 7690 ± 148 nM with A549/D32, 223 ± 23.2 nM in the assay with A549, 3420 ± 152 nM with A549/D16 and 1530 ± 80.8 nM in the assay on A549/V16.

Turning to `CC[C@]1(O)C[C@H]2CN(CCc3c([nH]c4ccccc34)[C@@](C(=O)OC)(c3cc4c(cc3OC)N(C=O)[C@H]3[C@@](O)(C(=O)OC)[C@H](OC(C)=O)[C@]5(CC)C=CCN6CC[C@]43[C@@H]65)C2)C1` [Vincristine], the “value … (ratio to parental A549)” value is 49.2 with A549/D32, 1.0 in the assay on A549, 51.9 with A549/D16 and 51.2 with A549/V16. Further, the IC50 in the assay on A549/D32 is 730 ± 28.3 nM; in the assay on A549, 14.9 ± 0.1 nM; with A549/D16 it was 770 ± 56.6 nM; in the assay with A549/V16 it was 760 ± 92.4 nM.

`N.N.[Cl][Pt][Cl]` [cisplatin]: in the assay with CaLu-1 cells, the IC50 was approximately 10000 nM.
